The values that follow come from ChEMBL document CHEMBL5291721, “A preclinical secondary pharmacology resource illuminates target-adverse drug reaction associations of marketed drugs” (Nat Commun, 2023).

Among the targets are Mu-type opioid receptor (Homo sapiens, UniProt P35372); Adenosine receptor A2a (Homo sapiens, UniProt P29274); Cannabinoid receptor 1 (Homo sapiens, UniProt P21554).
Assay [1] addresses T1, Alpha-1A adrenergic receptor (Homo sapiens, UniProt P35348).
T1 sequence (P35348 whole entry): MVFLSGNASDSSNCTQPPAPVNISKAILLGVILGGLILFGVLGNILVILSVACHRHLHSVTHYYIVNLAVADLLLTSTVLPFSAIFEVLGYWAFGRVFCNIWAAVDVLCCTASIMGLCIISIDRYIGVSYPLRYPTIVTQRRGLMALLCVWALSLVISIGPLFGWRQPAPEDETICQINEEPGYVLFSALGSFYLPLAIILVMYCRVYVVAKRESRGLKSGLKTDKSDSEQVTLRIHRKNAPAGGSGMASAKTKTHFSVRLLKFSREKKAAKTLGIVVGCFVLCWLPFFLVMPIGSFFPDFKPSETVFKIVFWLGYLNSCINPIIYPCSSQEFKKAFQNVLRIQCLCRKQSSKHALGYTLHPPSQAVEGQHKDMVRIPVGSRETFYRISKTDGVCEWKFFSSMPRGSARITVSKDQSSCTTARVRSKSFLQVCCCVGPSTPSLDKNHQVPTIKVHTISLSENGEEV
It counts as functional, cell-based.

Another assay has as its target T2, Estrogen receptor (Homo sapiens, UniProt P03372).
T2 sequence (P03372 whole entry): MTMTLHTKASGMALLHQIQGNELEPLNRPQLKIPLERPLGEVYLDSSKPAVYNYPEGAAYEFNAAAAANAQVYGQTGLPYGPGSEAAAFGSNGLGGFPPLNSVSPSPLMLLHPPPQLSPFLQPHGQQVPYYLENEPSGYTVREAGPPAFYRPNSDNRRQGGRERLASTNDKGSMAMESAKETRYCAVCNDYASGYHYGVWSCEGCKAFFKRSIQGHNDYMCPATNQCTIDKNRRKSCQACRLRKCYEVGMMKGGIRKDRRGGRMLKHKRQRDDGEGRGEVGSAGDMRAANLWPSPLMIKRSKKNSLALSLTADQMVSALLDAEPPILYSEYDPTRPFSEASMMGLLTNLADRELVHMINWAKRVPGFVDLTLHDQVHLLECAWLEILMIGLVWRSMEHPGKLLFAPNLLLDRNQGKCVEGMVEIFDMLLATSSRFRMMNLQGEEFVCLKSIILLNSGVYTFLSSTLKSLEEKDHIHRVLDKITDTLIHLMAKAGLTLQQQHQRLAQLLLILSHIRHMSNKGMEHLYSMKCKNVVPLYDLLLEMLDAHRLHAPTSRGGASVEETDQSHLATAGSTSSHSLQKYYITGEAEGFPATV

Assay [2] addresses Sodium-dependent serotonin transporter (Homo sapiens, UniProt P31645).
Assay [3] deals with T3, Alpha-2A adrenergic receptor (Homo sapiens, UniProt P08913).
T3 sequence (P08913 whole entry): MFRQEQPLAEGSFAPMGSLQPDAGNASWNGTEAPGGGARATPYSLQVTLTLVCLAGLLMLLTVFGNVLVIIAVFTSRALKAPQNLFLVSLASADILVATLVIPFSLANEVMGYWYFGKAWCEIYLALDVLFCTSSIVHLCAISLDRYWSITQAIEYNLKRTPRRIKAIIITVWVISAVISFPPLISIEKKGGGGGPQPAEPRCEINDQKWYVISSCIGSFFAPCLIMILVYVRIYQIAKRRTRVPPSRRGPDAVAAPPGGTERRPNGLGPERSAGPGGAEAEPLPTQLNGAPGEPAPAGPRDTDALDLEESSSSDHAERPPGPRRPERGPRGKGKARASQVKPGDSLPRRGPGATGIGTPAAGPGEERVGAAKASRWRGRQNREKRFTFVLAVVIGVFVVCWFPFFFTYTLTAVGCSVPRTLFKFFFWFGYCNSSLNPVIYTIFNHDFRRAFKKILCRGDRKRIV
The class given is functional, cell-based.

Assay [4] concerns the target T4, Gamma-aminobutyric acid receptor subunit alpha-1 (Rattus norvegicus, UniProt P62813).
For another assay, the target named is Histamine H2 receptor (Homo sapiens, UniProt P25021). The class given is functional, cell-based.
Sequence of Histamine H2 receptor (P25021 whole entry): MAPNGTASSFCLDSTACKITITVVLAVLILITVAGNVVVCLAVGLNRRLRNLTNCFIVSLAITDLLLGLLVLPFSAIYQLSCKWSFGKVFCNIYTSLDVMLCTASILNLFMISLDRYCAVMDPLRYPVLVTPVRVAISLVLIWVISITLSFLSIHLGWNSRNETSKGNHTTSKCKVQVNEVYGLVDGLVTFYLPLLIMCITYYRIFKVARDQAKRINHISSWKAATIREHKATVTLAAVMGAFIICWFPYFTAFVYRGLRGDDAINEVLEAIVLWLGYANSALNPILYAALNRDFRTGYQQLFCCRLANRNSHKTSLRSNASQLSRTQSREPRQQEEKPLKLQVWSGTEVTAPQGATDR
For assay [5], the target named is Glutamate receptor ionotropic, NMDA 1 (Rattus norvegicus, UniProt P35439).
Assay [6] deals with T4, Gamma-aminobutyric acid receptor subunit alpha-1. The source holds these as a separate data set.
Assay [7] concerns the target T5, Gastrin/cholecystokinin type B receptor (Homo sapiens, UniProt P32239).
T5 sequence (P32239 whole entry): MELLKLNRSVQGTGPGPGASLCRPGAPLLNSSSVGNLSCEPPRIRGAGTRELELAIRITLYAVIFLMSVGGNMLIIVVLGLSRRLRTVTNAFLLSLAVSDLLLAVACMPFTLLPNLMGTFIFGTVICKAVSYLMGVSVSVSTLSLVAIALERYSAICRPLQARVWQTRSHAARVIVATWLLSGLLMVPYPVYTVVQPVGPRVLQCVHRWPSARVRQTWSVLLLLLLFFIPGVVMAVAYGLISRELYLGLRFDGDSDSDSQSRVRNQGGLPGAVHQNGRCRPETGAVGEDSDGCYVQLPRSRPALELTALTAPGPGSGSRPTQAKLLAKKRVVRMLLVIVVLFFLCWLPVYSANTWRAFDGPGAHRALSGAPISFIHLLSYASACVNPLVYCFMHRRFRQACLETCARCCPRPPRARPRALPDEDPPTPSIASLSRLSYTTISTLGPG

The target in assay [8] is Kappa-type opioid receptor (Homo sapiens, UniProt P41145).
Sequence of Kappa-type opioid receptor (P41145 whole entry): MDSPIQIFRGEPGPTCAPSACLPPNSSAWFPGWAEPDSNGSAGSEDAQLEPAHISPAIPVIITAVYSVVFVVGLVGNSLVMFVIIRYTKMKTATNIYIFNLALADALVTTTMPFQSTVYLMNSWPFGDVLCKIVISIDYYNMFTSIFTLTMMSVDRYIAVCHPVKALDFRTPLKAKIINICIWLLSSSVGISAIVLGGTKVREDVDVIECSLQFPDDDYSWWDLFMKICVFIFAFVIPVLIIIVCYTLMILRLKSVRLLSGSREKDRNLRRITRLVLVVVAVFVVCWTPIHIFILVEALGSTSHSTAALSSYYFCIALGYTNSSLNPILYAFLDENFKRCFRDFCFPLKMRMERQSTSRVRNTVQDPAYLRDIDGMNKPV
The target in the next assay is T6, Thromboxane A2 receptor (Homo sapiens, UniProt P21731).
T6 sequence (P21731 whole entry): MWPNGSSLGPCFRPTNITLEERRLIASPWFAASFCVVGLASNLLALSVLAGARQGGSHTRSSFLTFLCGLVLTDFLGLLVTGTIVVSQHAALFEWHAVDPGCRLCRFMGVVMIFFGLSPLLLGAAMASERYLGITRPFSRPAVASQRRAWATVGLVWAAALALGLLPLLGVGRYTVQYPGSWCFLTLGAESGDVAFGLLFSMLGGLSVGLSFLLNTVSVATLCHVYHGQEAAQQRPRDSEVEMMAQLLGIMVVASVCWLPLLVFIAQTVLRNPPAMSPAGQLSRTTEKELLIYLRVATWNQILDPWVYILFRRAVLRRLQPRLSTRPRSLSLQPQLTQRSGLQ
Note: assay procedure not described here.

Sequence of Sodium-dependent serotonin transporter (P31645 whole entry): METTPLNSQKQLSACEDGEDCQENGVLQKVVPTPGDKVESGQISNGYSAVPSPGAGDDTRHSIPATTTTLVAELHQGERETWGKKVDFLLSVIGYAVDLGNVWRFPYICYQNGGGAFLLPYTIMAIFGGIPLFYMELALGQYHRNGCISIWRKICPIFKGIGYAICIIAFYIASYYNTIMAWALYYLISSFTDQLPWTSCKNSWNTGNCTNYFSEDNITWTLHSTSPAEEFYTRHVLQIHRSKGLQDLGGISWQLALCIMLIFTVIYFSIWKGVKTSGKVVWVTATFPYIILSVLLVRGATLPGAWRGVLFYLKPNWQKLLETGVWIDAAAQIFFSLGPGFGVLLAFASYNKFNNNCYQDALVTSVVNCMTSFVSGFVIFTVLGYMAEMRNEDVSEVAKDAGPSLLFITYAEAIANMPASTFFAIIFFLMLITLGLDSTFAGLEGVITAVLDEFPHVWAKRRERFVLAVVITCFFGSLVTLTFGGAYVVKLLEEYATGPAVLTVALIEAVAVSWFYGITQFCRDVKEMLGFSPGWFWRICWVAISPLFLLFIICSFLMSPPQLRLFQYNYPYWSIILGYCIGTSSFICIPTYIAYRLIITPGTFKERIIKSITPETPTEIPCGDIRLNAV
T4 sequence (P62813 whole entry): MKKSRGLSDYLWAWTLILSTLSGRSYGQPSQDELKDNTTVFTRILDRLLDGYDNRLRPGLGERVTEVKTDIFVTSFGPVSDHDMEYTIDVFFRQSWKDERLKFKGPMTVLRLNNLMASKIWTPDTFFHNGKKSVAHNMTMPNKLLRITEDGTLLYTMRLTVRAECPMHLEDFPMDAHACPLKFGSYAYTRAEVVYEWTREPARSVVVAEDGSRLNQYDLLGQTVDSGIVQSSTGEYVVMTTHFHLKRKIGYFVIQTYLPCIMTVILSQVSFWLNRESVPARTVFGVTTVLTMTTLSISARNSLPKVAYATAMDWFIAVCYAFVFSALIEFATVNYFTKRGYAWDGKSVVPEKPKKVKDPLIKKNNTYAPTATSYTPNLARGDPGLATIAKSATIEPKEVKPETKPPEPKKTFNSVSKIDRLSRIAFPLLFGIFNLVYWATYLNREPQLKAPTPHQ
Sequence of Mu-type opioid receptor (P35372 whole entry): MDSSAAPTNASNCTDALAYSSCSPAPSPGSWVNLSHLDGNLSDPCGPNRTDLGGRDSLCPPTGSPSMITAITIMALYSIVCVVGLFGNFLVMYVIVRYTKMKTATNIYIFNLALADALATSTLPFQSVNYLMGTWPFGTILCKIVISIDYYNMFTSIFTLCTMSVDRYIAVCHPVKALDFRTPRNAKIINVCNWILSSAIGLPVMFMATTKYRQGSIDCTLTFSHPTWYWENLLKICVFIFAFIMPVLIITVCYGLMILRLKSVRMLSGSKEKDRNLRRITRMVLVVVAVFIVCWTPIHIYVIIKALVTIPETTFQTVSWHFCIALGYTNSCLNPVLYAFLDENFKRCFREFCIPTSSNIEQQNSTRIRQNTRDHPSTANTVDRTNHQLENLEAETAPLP
Sequence of Adenosine receptor A2a (P29274 whole entry): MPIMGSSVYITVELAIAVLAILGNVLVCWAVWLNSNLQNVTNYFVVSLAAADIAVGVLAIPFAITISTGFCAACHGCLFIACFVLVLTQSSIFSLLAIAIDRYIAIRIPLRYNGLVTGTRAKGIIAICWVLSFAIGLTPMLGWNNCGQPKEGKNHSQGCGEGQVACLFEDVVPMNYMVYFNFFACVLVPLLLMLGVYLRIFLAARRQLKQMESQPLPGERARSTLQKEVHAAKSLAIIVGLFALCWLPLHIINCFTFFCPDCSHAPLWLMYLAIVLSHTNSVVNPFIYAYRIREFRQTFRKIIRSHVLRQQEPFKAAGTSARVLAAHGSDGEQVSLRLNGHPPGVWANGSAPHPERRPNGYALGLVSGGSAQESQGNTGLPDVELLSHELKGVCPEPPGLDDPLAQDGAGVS
Sequence of Cannabinoid receptor 1 (P21554 whole entry): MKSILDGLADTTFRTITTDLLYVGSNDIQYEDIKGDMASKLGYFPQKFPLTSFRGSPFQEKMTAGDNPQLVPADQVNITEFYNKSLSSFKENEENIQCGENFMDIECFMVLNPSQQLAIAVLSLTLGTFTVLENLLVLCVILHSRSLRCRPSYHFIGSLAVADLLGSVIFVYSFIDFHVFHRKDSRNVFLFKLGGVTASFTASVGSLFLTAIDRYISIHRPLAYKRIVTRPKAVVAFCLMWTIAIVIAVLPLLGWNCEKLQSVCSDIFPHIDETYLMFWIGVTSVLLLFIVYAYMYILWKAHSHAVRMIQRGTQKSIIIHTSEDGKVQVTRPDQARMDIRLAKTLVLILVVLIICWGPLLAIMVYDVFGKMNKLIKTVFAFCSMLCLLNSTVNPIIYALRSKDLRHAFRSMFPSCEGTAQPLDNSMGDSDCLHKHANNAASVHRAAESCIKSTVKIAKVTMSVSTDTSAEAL

A word on the AC50: it is the midpoint of the concentration-response curve, whichever way the signal moves. High values mean weaker potency, low ones greater potency. On to `O=C(O)COc1ccc(C(=O)c2cccs2)c(Cl)c1Cl`, for which the AC50 (in assay [1]; on Estrogen receptor) was greater than 30 µM in each case.

In the case of `COc1c2ccoc2cc2oc(=O)ccc12` [BERGAPTEN], the AC50 (in assay [1]; in assay [2]; at Estrogen receptor) was greater than 30 µM in each case.

For `COc1cc2nccc(Oc3ccc(NC(=O)C4(C(=O)Nc5ccc(F)cc5)CC4)cc3)c2cc1OC` [CABOZANTINIB], the AC50 in assay [1] is 9.03 µM; at Mu-type opioid receptor, greater than 30 µM; in assay [3], greater than 30 µM; on Adenosine receptor A2a, greater than 30 µM; at Estrogen receptor it was greater than 30 µM.

Consider `CN(C)[C@@H]1C(O)=C(C(N)=O)C(=O)[C@@]2(O)C(O)=C3C(=O)c4c(O)ccc(Cl)c4[C@@](C)(O)[C@H]3C[C@@H]12` [CHLORTETRACYCLINE], for which the half-maximal activity concentration (AC50) in assay [1] and in assay [4] was greater than 30 µM in each case.

With `N[C@@H](CS)C(=O)O` [CYSTEINE], the AC50 in [1] and in assay [2] was greater than 30 µM throughout.

Consider `O=C(O)CO` [GLYCOLIC ACID], for which the AC50 (in [4]; at Estrogen receptor) was greater than 30 µM in each case.

On to `CC(C)Cc1ccc(C(C)C(=O)O)cc1` (configuration not stated) [IBUPROFEN], for which the concentration at half-maximal activity (AC50) was greater than 10 µM on Histamine H2 receptor; greater than 10 µM in [5]; greater than 30 µM in assay [1]; greater than 10 µM in assay [6]; greater than 30 µM in assay [7]; greater than 30 µM at Mu-type opioid receptor. The concentration at half-maximal activity (AC50) was greater than 10 µM at Cannabinoid receptor 1; greater than 10 µM in assay [8]; greater than 10 µM in assay [3]; greater than 30 µM on Thromboxane A2 receptor; greater than 30 µM at Adenosine receptor A2a; greater than 30 µM at Estrogen receptor.

`CC(CCc1ccccc1)NCC(O)c1ccc(O)c(C(N)=O)c1` (configuration not stated) [LABETALOL]: the AC50 at Estrogen receptor was greater than 30 µM.

On to `CN1CCCCC1CCN1c2ccccc2Sc2ccc([S+](C)[O-])cc21` (configuration not stated) [MESORIDAZINE], for which the half-maximal activity concentration (AC50) in [1] was 0.0171 µM; in [2], greater than 30 µM; at Estrogen receptor it was greater than 10 µM.

On to `C[C@@H]1C[C@H]2[C@@H]3CCC4=CC(=O)C=C[C@]4(C)[C@@]3(Cl)[C@@H](O)C[C@]2(C)[C@@]1(OC(=O)c1ccco1)C(=O)CCl` [MOMETASONE FUROATE], for which the AC50 in assay [1] was greater than 10 µM; in assay [2] it was greater than 30 µM.

On to `Cc1ccccc1C(=O)Nc1ccc(C(=O)N2CCCC(N(C)C)c3ccccc32)cc1` (configuration not stated) [MOZAVAPTAN], for which the figures for the AC50 (in assay [1]; in assay [2]; at Estrogen receptor) were 18.8 µM, 1.26 µM and greater than 30 µM, respectively.

`CCOC(=O)C1=C[C@@H](OC(CC)CC)[C@H](NC(C)=O)[C@@H](N)C1` [OSELTAMIVIR]: the AC50 in [1] and in assay [2] was greater than 30 µM in each case.

Turning to `Cc1onc(-c2ccccc2)c1C(=O)N[C@@H]1C(=O)N2[C@@H]1SC(C)(C)[C@@H]2C(=O)O` [OXACILLIN], the concentration at half-maximal activity (AC50) (in assay [1]; in assay [2]; on Estrogen receptor) was greater than 30 µM in each case.

Turning to `N#Cc1ccc2c(c1)N(CCCN1CCC(O)CC1)c1ccccc1S2` [PERICIAZINE], the AC50 in [4] was 29.8 µM; at Estrogen receptor it was greater than 30 µM.

Regarding `[H]/N=C(\N/C(=N/[H])Nc1ccc(Cl)cc1)NC(C)C` [PROGUANIL], the results for the half-maximal activity concentration (AC50) (in assay [1]; in assay [2]; at Estrogen receptor) were greater than 30 µM, 22.8 µM and greater than 30 µM, respectively.

With `CC(CN1CC(=O)NC(=O)C1)N1CC(=O)NC(=O)C1` (configuration not stated) [RAZOXANE], the concentration at half-maximal activity (AC50) (in assay [1]; in assay [2]; at Estrogen receptor) was greater than 30 µM in each case.

For `OC[C@@H](O)[C@@H](O)[C@H](O)[C@@H](O)CO` [SORBITOL], the AC50 (in assay [4]; at Estrogen receptor) was greater than 30 µM in each case.

Regarding `CC(C)OC(=O)CCC/C=C\C[C@@H]1[C@@H](/C=C/C(F)(F)COc2ccccc2)[C@H](O)C[C@@H]1O` [TAFLUPROST], the AC50 (in [1]; in [2]; at Estrogen receptor) was greater than 30 µM throughout.

For the compound `C[C@]1(Cn2ccnn2)[C@H](C(=O)O)N2C(=O)C[C@H]2S1(=O)=O` [TAZOBACTAM], the concentration at half-maximal activity (AC50) (in [1]; on Estrogen receptor) was greater than 30 µM each time.
